# What was measured:
# PLK1 (Wild Type) = target: T1, PLK1 (Wild Type) (Homo sapiens, UniProt P53350); test: Inhibitory effect against PLK1 activity (Method B), PLK1 wild type, [γ-33P]ATP peptide phosphorylation; type: biochemical; conditions: 10 μM ATP, 20 μM substrate peptide, 25° C., 120 minutes
# T1 construct: the N terminus of a full-length cDNA of a wild type PLK1 is fused with GST; purchased Carna Biosciences Inc; host or cells: insect cell (baculovirus)
# Description: 2. Measurement of Inhibitory Effect against PLK1 Activity (Method B)
# Human PLK1 was purchased from Carna Biosciences Inc. According to the Product Information from Carna Biosciences Inc., the present enzyme is an enzyme obtained by preparing a baculovirus for which the N terminus of a full-length cDNA of a wild type PLK1 is fused with GST (glutathione S-transferase), followed by highly expressing PLK1 transfected into an insect cell as a GST-fused protein, and then carrying out a purification with the use of glutathione sepharose chromatography.
# For the measurement of the PLK1 activity, a synthetic peptide (arginine-arginine-arginine-aspartic acid-glutamic acid-leucine-methionine-glutamic acid-alanine-serine-phenylalanine-alanine-aspartic acid-glutamine-glutamic acid-alanine-lysine-valine) (SEQ. ID. NO.: 1) in which the serine surrounding sequence of the amino acid sequence No. 198 of CDC25C having been reported as the site for PLK1 substrate [EMBO Report, 3rd edition, 341 (2002)] is altered, was used as a substrate for the PLK1.
# The reaction was carried out in accordance with the method as described by Toyoshima-Morimoto et al. [Nature, Vol. 410, 215-220, (2001)]. The volume of the reaction solution was 10.5 μl and the composition of the reaction buffer was a 20 mM Tris-HCl buffer (pH 7.4)/10 mM magnesium chloride/0.5 mM dithiothreitol/1 mM EGTA (ethylene glycol-bis (beta-aminoethylether-N,N,N′,N′-tetraacetic acid). Thereto, purified PLK1, 20 μM of the substrate peptide, 10 μM of non-labeled adenosine triphosphate (ATP), and 0.3 μCi [γ-^33P]-labeled ATP (>2500 Ci/mmole) were added to perform the reaction at a reaction temperature of 25° C. for 120 minutes. Thereafter, 20 μI of a 350 mM phosphate buffer was added to the reaction system to terminate the reaction, and the resultant solution was spotted onto a multi-screen phosphocellulose filter on a 384-well plate. After the phosphocellulose filter is washed with a 75 mM phosphate buffer and then dried, the radioactivity was measured with a liquid cintillation counter. The non-labeled and [γ-^33P]-labeled ATPs, and the multi-screen phosphocellulose filter were purchased from GE Healthcare Bio-Sciences, and Millipore Corporation, respectively.
# Addition of the compound of the present invention to the reaction system was carried out by adding 0.5 μl of the solution prepared by preliminarily dissolving the compound in dimethylsulfoxide at a 20-fold concentration of the final concentration. A control was provided by adding 0.5 μl of dimethylsulfoxide to the reaction system.
# HeLaS3 cells = test: Inhibitory effect against cell proliferation: PLK1 inhibition at cellular level (M phase arrest, phospho-histone H3); type: cell-based; conditions: Homo sapiens, HeLa S3, 18 hours after addition, concentration inducing 50% of maximum ratio of cells arrested at M phase (histone H3 Ser10 phosphorylation)
# Description: 3. Measurement of the Inhibitory Effect against Cell Proliferation: Measurement of the Inhibitory Activity Against PLK1 at Cellular Level
# For the measurement of the PLK 1 inhibitory activity of the compound at a cellular level, human uterine cervix cancer cell lines HeLaS3 cells were used. The HeLaS3 cell was obtained from American Type Culture Collection (ATTC), and cultured in a CO2-incubator of saturated steam by using Dulbecco's Modified Eagle's Medium containing 10% fetal calf serum at 37° C. in the presence of 5% CO2.
# It has been reported that PLK 1 plays an important role in various stages of mitotic phase (M-phase) in mammalian cells (Nature Review Molecular Cell Biology (Nat. Rev. Mol. Cell. Biol.), Vol. 5, 429, (2004)). In fact, when mammalian cells are treated with PLK 1 siRNA to control the expression level, the cell cycle progression is inhibited and thus the cells are arrested at M phase. At the time, when the phosphorylation level of 10th serine residue on histone H3, which is thought to be required for a chromosome condensation in M phase, is examined, then it is observed that the level is enhanced to a high level. Thus, after treating the cells with the compound according to the invention, the phosphorylation level of histone H3 was examined by the indirect fluorescent antibody technique; the M phase cells were identified by using the level thereof as an indicator to analyze the ratio of cells arrested at M phase; and further EC50 value of each compound was calculated to evaluate the PLK1 inhibitory activity at a cellular level.
# First, HeLaS3 cells were seeded into a lysine-treated 96-well plate (Falcon Corp.) in the proportion of 3,000 per one well, and allowed to stand still in the above-mentioned CO2 incubator. 24 hours after the seeding, the compound according to the invention, which is diluted in series, was added into each well of the plate, and further allowed to stand still in the CO2 incubator. 18 hours after the addition of the compound according to the invention, the culture medium containing the compound according to the invention in each well of the plate was removed, and then 100 μL of ice-cold 100% methanol (Wako Pure Chemical Industries, Ltd.) was added, to carry out cell fixation for 10 minutes and treatment of increasing the membrane permeability. Subsequently, to the wells in which the methanol was removed, 50 μL of 1% BSA/PBS was added, and then blocking was carried out for 30 minutes. Thereafter, for the primary antibody reaction, 50 μL of 1% BSA/PBS containing a […] Anti-phospho Histone H3 (Ser10) antibody (Upstate Corp.) was added to the wells, and the plate was left over at room temperature for 90 minutes. After terminating the reaction, each well was once washed with PBS; and for the second antibody reaction, 50 μL of 1% BSA/PBS containing […] Cy5-labelled antirabbit IgG (H+L) antibody (Chemicon) and 10 ug/mL DAPI (Sigma) which is a nucleus staining regent, was added, and further left over at room temperature for 90 minutes. After terminating the reaction, the reaction solution in wells was removed and replaced with 100 μL of PBS, and then fluorescence images were captured by using IN Cell Analyzer 1000 (manufactured by GE Amersham) to analyze the ratio of M phase cells (Mitotic index) in each view. When the maximum value of the ratio of cells arrested at M phase which can be induced by each drug is assumed as 100%, the drug concentration required for inducing 50% out of that 100% is defined as EC50.
# PLK1-T210D = target: T2, PLK1-T210D (Homo sapiens, UniProt P53350, T210D); test: Inhibitory effect against PLK1 activity (Method A), PLK1-T210D, [γ-33P]ATP peptide phosphorylation; type: biochemical; conditions: 50 μM ATP, 50 μM substrate peptide, 25° C., 20 minutes
# T2 construct: GST (N, cleaved yes); made in house; host or cells: Spodoptera frugiperda Sf9 insect cells (baculovirus)
# T2 sequence (P53350 whole entry T210D): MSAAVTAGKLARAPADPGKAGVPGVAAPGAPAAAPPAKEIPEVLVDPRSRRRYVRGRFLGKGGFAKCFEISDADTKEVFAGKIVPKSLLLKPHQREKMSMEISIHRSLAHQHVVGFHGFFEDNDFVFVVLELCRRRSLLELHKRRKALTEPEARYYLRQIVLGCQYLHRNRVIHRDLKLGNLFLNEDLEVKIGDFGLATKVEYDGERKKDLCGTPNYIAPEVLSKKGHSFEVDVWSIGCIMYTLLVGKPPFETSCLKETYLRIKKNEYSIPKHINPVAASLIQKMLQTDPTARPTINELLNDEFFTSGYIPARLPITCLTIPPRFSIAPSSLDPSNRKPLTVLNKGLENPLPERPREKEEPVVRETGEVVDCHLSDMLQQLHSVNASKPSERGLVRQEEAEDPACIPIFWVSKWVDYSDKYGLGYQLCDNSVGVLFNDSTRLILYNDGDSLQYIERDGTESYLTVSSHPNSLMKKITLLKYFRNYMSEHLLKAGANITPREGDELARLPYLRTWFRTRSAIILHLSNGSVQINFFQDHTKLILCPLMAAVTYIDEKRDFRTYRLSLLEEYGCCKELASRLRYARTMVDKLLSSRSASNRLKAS
# Description: 1. Measurement of the Inhibitory Effect against PLK 1 Activity (Method A)
# It has been known that 210th codon of human PLK1 which originally codes for threonine can be changed to an active type by altering the site into aspartic acid [Molecular and Cell Biology (Mol. Cell. Biol.), 17th edition, 3408 (1997)]. In order to obtain a human active type PLK1 protein, cDNA of mutated PLK1 (PLK1-T210D) of which the 210th codon codes for aspartic acid by substituting a base in the 210th codon of human PLK1 cDNA, was prepared. A baculovirus for which the N terminus of the PLK1-T210D cDNA is fused with GST (glutathione S-transferase) was prepared, and then the PLK1-T210D transfected into a Spodoptera frugiperda (Sf) 9 insect cell was highly expressed as a GST-fused protein. The cells were recovered and suspended in a lysis buffer (50 mM tris-hydrochloric acid buffer (pH 7.4)/150 mM sodium chloride/1 mM EDTA (ethylenediamine tetraacetic acid)/1 mM dithiothreitol/0.1% polyoxyethylene sorbitan monolaurate) to break cells with sonicator, and supernatant was recovered after a centrifugation. The supernatant was reacted on glutathione sepharose beads, and then the beads were washed with a lysis buffer. Thereafter, the beads were reacted in a lysis buffer containing Precision Protease (available from GE Healthcare Bioscience Company) to recover supernatant. […]
# The reaction was carried out in accordance with the method of Toyoshima-Morimoto et al. [Nature, Vol. 410, 215-220, (2001)]. […] After washing the phosphocellulose filter with 75 mM phosphate buffer, the filter was dried to measure the radioactivity with a liquid scintillation counter. […]
# T1 sequence (P53350 whole entry, the tested form may be a part): as the sequence (P53350 whole entry T210D) above, with D210T counted along it
IC50 (PLK1 (Wild Type)) [nM],EC50 (HeLaS3 cells) [nM],IC50 (PLK1-T210D) [nM],SMILES
2.6,4,,"C[C@H](Nc1ncc(F)c(-c2cnc3c(Cl)cccn23)n1)c1ccc([C@H](O)CNC(C)(C)C)cc1 [Example 67, (1S)-2-(tert-butylamino)-1-[4-((1S)-1-{[4-(8-chloroimidazo[1,2-a]pyridin-3-yl)-5-fluoropyrimidin-2-yl]amino}ethyl)phenyl]ethanol]"
2.2,3.5,,"C[C@H](Nc1ncc(F)c(-c2cnc3c(Cl)cccn23)n1)c1ccc([C@H](O)CNC2(C)CCCC2)cc1 [Example 71, (1S)-1-[4-((1S)-1-{[4-(8-chloroimidazo[1,2-a]pyridin-3-yl)-5-fluoropyrimidin-2-yl]amino}ethyl)phenyl]-2-[(1-methylcyclopentyl)amino]ethanol]"
2.4,13.9,,"CC(C)N1CC(C(O)c2ccc([C@H](C)Nc3ncc(F)c(-c4cnc5c(Cl)cccn45)n3)cc2)C1 (single isomer, unassigned) [Example 89]"
2.3,2.6,,"CCc1cccn2c(-c3nc(N[C@@H](C)c4ccc([C@H](O)CNC(C)(C)C)cc4)ncc3C#N)cnc12 [Example 5, 2-[((1S)-1-{4-[(1S)-2-(tert-butylamino)-1-hydroxyethyl]phenyl}ethyl)amino]-4-(8-ethylimidazo[1,2-a]pyridin-3-yl)pyrimidine-5-carbonitrile]"
1.4,4,7,"CCc1cccn2c(-c3nc(N[C@@H](C)c4ccc(C(O)[C@@H]5CCCN(C)C5)cc4)ncc3C#N)cnc12 (single isomer, unassigned) [Example 43]"
1.8,2.9,,"C[C@H](Nc1ncc(C#N)c(-c2cnc3c(C4CC4)cccn23)n1)c1ccc([C@H](O)[C@@]2(C)CCCN2C)cc1 [Example 66, 4-(8-cyclopropylimidazo[1,2-a]pyridin-3-yl)-2-[((1S)-1-{4-[(S)-[(2R)-1,2-dimethylpyrrolidin-2-yl](hydroxy)methyl]phenyl}ethyl)amino]pyrimidine-5-carbonitrile]"

# The remaining lines, values behind:
SMILES,IC50 (PLK1 (Wild Type)) [nM],EC50 (HeLaS3 cells) [nM],IC50 (PLK1-T210D) [nM]
"CCc1cccn2c(-c3nc(N[C@@H](C)c4ccc(C(O)C5CCN(C)CC5)cc4)ncc3C#N)cnc12 (single isomer, unassigned) [Example 24]",1.4,4.6,4.1
"C[C@H](Nc1ncc(F)c(-c2cnc3c(Cl)cccn23)n1)c1ccc(C(O)C(C)(C)N(C)C)cc1 (single isomer, unassigned) [Example 85]",3.4,11,
"Cc1cnc(N[C@@H](C)c2ccc([C@H](O)CNC(C)(C)C)cc2)nc1-c1cnc2c(C3CC3)cccn12 [Example 73, (1S)-2-(tert-butylamino)-1-[4-((1S)-1-{[4-(8-cyclopropylimidazo[1,2-a]pyridin-3-yl)-5-methylpyrimidin-2-yl]amino}ethyl)phenyl]ethanol]",10,5.7,
"CCc1cccn2c(-c3nc(N[C@@H](C)c4ccc(C(O)[C@H]5CCCN5C)cc4)ncc3C#N)cnc12 (stereo partly drawn) [Example 55, 4-(8-ethylimidazo[1,2-a]pyridin-3-yl)-2-{[(1S)-1-(4-{hydroxy[(2R)-1-methylpyrrolidin-2-yl]methyl}phenyl)ethyl]amino}pyrimidine-5-carbonitrile]",,5,11

# From patent publication US7977336B2, “Aminopyrimidine derivatives as PLK1 inhibitors” (Banyu Pharmaceutical Co. Ltd, priority 2006, dated 2011)
